The record followed here is patent US20240033208A1, “BOTANICAL EXTRACT BLEND FOR USE IN SKIN CARE” (Shaklee Corporation, priority 2022, published 2024).

Test [1] has as its system MatTek EpiDerm tissue (UVB induced CPD formation in genomic DNA). Description: Cyclobutane pyrimidine dimer (CPD) assay, UVB, ELISA. Particulars: for CPD in genomic DNA: pretreated overnight before UVB. The class given is cell-based, human. As to the method: The testing system used for this assay was the MatTek EpiDerm, a skin model which consists of normal human-derived epidermal keratinocytes cultured to form a multilayered, highly differentiated model of the human epidermis. For this study, tissues were treated topically either overnight with the test materials prior to UVB exposure (pretreat group to assess prevention). Following treatment, DNA was extracted from the EpiDerm tissues and assayed for CPD content using an ELISA based method.
On the technique in general: In an ELISA, binding on a coated surface is turned into a signal by an enzyme label.

For test [2], the system named is preexisting AGEs in collagen. The test is described as follows: Collagen AGE reduction assay. The class given is biochemical. As to the method: AGE Reduction—50 μl of ice-cold collagen solution was added to the wells of a 96 well plate. The plate was then incubated overnight at 37C to allow the collagen solution to gel. On the following day, 10 μl of a 500 mM glyceraldehyde solution was added to all of the wells and the plate was incubated for 24 hours in a humidified incubator at 37° C. On the following day 40 μl of either test material (prepared in assay buffer), aminoguanidine (positive control), or assay buffer (negative control) was added to the plate. The plate was then read using a fluorometer (355 nm excitation and 405 nm emission) and then incubated again for 24 hours in a humidified incubator at 37C. On the following day the plate was read again. AGE formation was determined by subtracting the initial fluorescent measurement from the final fluorescent measurement for each sample.

The test system of test [3] is AGE formation in collagen. Description: Collagen AGE prevention assay. The class given is biochemical. How it is done: AGE Prevention—50 μl of ice-cold collagen solution was added to the wells of a 96 well plate. The plate was incubated overnight at 37° C. to allow the collagen solution to gel. On the following day, 40 μl of either test material (prepared in assay buffer), aminoguanidine (positive control), or assay buffer (negative control) was added to the plate. After the materials were added, 10 μl of a 500 mM glyceraldehyde solution was added to all of the wells. The plate was then read using a fluorometer (355 nm excitation and 405 nm emission) and then incubated for 24 hours in a humidified incubator at 37C. On the following day the plate was read again. AGE formation was determined by subtracting the […] for each sample.

In the next test the test system is elastase. Description: Elastase inhibition (fibroblast lysate, STANA substrate, 405 nm). The format is biochemical, human. How it is done: Human dermal fibroblasts were cultured and used as a source of the elastase enzyme. Elastase was partially purified from fibroblasts by lysing the cells in an elastase buffer and retaining the soluble portion of the lysate. Portions of this fibroblast lysate were then be incubated with test materials and a synthetic elastase substrate, Suc-([…])-p-Nitroaniline (STANA). Elastase acts upon the substrate, releasing p-nitroaniline, which can be detected with a spectrophotometer by measuring absorbance at a wavelength of 405 nm. Inhibition of elastase enzyme is indicated by a decrease in the amount of released p-nitroaniline as compared to the uninhibited enzyme.

A further test deals with T1, human recombinant MMP-1 (Homo sapiens, UniProt P03956).
T1 sequence (P03956 100-469): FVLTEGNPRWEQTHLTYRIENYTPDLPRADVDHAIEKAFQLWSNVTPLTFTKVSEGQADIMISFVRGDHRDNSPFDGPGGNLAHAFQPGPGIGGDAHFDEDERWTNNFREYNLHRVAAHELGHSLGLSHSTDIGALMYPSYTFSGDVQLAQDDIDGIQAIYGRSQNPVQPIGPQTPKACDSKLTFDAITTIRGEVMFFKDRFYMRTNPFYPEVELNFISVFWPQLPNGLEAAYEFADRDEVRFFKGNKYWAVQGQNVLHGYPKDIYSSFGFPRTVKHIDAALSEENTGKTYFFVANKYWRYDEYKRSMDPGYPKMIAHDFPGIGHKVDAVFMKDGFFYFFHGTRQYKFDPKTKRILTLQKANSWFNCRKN
The test is described as follows: Collagenase (MMP-1) inhibition (thiopeptolide/DTNB, 412 nm). The format is biochemical. The source says:
Matrix Metalloproteinase-1 (MMP-1) is an extracellular protease with an approximate molecular weight of 52-56 kD in its latent form. Upon cleavage of the proenzyme, the 22-46 kD MMP-1 becomes an active enzyme and can degrade many substrates including collagen, gelatin, and entactin. In human skin, increased MMP-1 activity can be induced via some disease states, exposure to UV irradiation or as part of the natural aging process. This can result in an imbalanced state where the degradation of collagen by MMP-1 exceeds its rate of replacement. Therefore, materials that inhibit MMP-1 activity can be beneficial for skin care. To screen inhibitors of MMP-1, human recombinant MMP-1 was incubated in the presence of a thiopeptolide substrate, potential inhibitors, and 5,5′-dithiobis(2-nitrobenzoic acid) (DTNB). When the thiopeptolide substrate is broken down by MMP-1, it releases a sulfhydryl group that can react with DTNB and form 2-nitro-5-thiobenzoic acid, which can be detected spectrophotometrically at 412 nm. Thus, in the presence of inhibitors, absorbance will be decrease relative to the non-inhibited enzyme.

Where [4] appears, read: ingredients tested individually at the concentrations used in the blends.

As to `Cc1c(C)c2c(c(C)c1O)CCC(C)(C(=O)O)O2` (stereo not drawn) [Trolox, reference compound], in test [1] (150 ug/ml), the “% Prevention of genomic DNA CPD formation” value was found to be 67% and the “CPD in genomic DNA” value is 1.439 ± 0.088 ng/mL.
As to `N=C(N)NN` [Aminoguanidine, aminoguanidine, reference compound], the “Percent AGE Reduction” value in test [2] (8 mM) was 33.4 ± 3.3%. For the same molecule, the “Percent AGE Prevention” value in test [3] (8 mM) is given as 56.8 ± 0.5%.
Regarding `Oc1ccc(/C=C/c2cc(O)cc(O)c2)cc1` [Resveratrol, 5-[(E)-2-(4-Hydroxyphenyl)ethen-1-yl]benzene-1,3-diol], the “Percent AGE Reduction” value amounted to 28.2 ± 1.2% in test [2] (0.0375%) and 32.8 ± 2.8% in test [2] (0.075%). Also, the “reducing existing AGEs (in words)” value in test [2] (setting [4]) is “significantly effective”. For the same molecule, the “% Prevention of genomic DNA CPD formation” value in test [1] (0.0375%) stood at 63%; in test [1] (0.075%) it was 75%. Besides, the “CPD in genomic DNA” value turned out to be 1.601 ± 0.180 ng/mL in test [1] (0.0375%) and 1.115 ± 0.085 ng/mL in test [1] (0.075%). For the same molecule, the figures for the “Percent Inhibition (elastase)” value in the test with elastase (0.075%) and in the test with elastase (0.08%) were 30 ± 3% and 33 ± 2%, respectively. Moreover, in the test on elastase (summary of Table 10), the “elastase inhibition (in words)” value is on record as “effective at inhibiting elastase activity on its own”. Further, the entries for the “Percent AGE Prevention” value in test [3] (0.0375%) and in test [3] (0.075%) were 20.8 ± 2.4% and 38.4 ± 7.1%, respectively. Also, the “preventing AGE formation (in words)” value in test [3] (setting [4]) is listed as “significantly effective”. In addition, the “Percent Inhibition (collagenase)” value on human recombinant MMP-1 (0.075%) is reported as 4 ± 0%; on human recombinant MMP-1 (0.08%) it was 7 ± 1%.
For `CC(C)C[C@H](NP(=O)(O)O[C@@H]1O[C@@H](C)[C@H](O)[C@@H](O)[C@H]1O)C(=O)N[C@@H](Cc1c[nH]c2ccccc12)C(=O)O` [Phosphoramidon, reference compound], the “Percent Inhibition (elastase)” value in the test on elastase (0.2 mM) is on record as 97 ± 0%.
On to `COc1ccc(S(=O)(=O)N(CC(=O)NO)CC(C)C)cc1` [NNGH, reference compound], for which the “Percent Inhibition (collagenase)” value on human recombinant MMP-1 (2 uM) is given as 94 ± 3%.
